Data published in patent publication US7696129B2, “Substituted aromatic amide derivative, intermediate thereof, agrohorticultural insecticide containing thereof and method for the use thereof” (Nihon Nohyaku Co., Ltd., priority 2001, dated 2010).

Experiments:
Assay type in all cases: in vivo
[1] = system: Diamond Back Moth (Plutella xylostella); experiment: Test Example 1: insecticidal effect on diamond back moth, immersion of Chinese cabbage seedling with eggs; details: 50 ppm, seedling with eggs immersed about 30 seconds, 25° C., six days after the immersion
From the text: Insecticidal Effect on Diamond Back Moth (Plutella xylostella)
Adult diamond back moths were released and allowed to oviposit on a Chinese cabbage seedling. Two days after the release, the seedling having the eggs deposited thereon was immersed for about 30 seconds in a liquid chemical prepared by diluting a preparation containing each compound listed in Tables 4 to 9 as an active ingredient to adjust the concentration to 50 ppm. After air-dryness, it was allowed to stand in a room thermostatted at 25° C. Six days after the immersion, the hatched insects were counted. The mortality was calculated according to the following equation and the insecticidal effect was judged according to the criterion shown below. The test was carried out with triplicate groups of 10 insects.

[2] = system: Common Cutworm (Spodoptera litura); experiment: Test Example 2: insecticidal effect on common cutworm, cabbage leaf immersion; details: 50 ppm, cabbage leaf immersed about 30 seconds, second-instar larvae, 25° C., eight days after the inoculation
From the text: Insecticidal Effect on Common Cutworm (Spodoptera litura)
A piece of cabbage leaf (cultivar; Shikidori) was immersed for about 30 seconds in a liquid chemical prepared by diluting a preparation containing each compound listed in Tables 4 to 9 as an active ingredient to adjust the concentration to 50 ppm. After air-dryness, it was placed in a plastic Petri dish with a diameter of 9 cm and inoculated with second-instar larvae of common cutworm, after which the dish was closed and then allowed to stand in a room thermostatted at 25° C. Eight days after the inoculation, the dead and alive were counted. The mortality was calculated according to the following equation and the insecticidal effect was judged according to the criterion shown in Test Example 1. The test was carried out with triplicate groups of 10 insects.

[3] = system: Smaller Tea Tortrix (Adxophyes sp.); experiment: Test Example 3: insecticidal effect on smaller tea tortrix, tea leaf immersion; details: 50 ppm, tea leaves immersed about 30 seconds, larvae, 25° C., humidity 70%, eight days after the inoculation
Procedure: Insecticidal Effect on Smaller Tea Tortrix (Adxophyes sp.)
Tea leaves were immersed for about 30 seconds in a liquid chemical prepared by diluting a preparation containing each compound listed in Tables 1 to 3 as an active ingredient to adjust the concentration to 50 ppm. After air-dryness, the tea leaves were placed in a plastic Petri dish with a diameter of 9 cm and inoculated with larvae of smaller tea tortrix, after which the dish was allowed to stand in a room thermostatted at 25° C. and having a humidity of 70%. Eight days after the inoculation, the dead and alive were counted and the insecticidal effect was judged according to the criterion shown in Test Example 1. The test was carried out with triplicate groups of 10 insects.

## Cc1cc(C(C(F)(F)F)C(F)(F)F)c(F)cc1NC(=O)c1cccc(I)c1C(=O)NC(C)C [5-62]
[1]
  Test Example 1 (insecticidal effect, mortality criterion): A (Mortality 100%)
[2]
  Test Example 2 (insecticidal effect, mortality criterion): A (Mortality 100%)
[3]
  Test Example 3 (insecticidal effect, mortality criterion): A (Mortality 100%)

## CSCC(C)(C)NC(=O)c1c(I)cccc1C(=O)Nc1cc(F)c(C(C(F)(F)F)C(F)(F)F)cc1C [5-63]
[1]
  Test Example 1 (insecticidal effect, mortality criterion): A (Mortality 100%)
[2]
  Test Example 2 (insecticidal effect, mortality criterion): A (Mortality 100%)
[3]
  Test Example 3 (insecticidal effect, mortality criterion): A (Mortality 100%)

## CSCC(C)(C)NC(=O)c1c(I)cccc1C(=O)Nc1ccc(C(C(F)(F)F)C(F)(F)F)c(Cl)c1C [5-66]
[1]
  Test Example 1 (insecticidal effect, mortality criterion): A (Mortality 100%)
[2]
  Test Example 2 (insecticidal effect, mortality criterion): A (Mortality 100%)
[3]
  Test Example 3 (insecticidal effect, mortality criterion): A (Mortality 100%)

## Cc1cc(C(C(F)(F)F)C(F)(F)F)cc(C)c1NC(=O)c1cccc(I)c1C(=O)NC(C)C [5-67]
[1]
  Test Example 1 (insecticidal effect, mortality criterion): A (Mortality 100%)
[2]
  Test Example 2 (insecticidal effect, mortality criterion): E (Mortality 49% or less)
[3]
  Test Example 3 (insecticidal effect, mortality criterion): A (Mortality 100%)

## CSCC(C)(C)NC(=O)c1c(I)cccc1C(=O)Nc1c(C)cc(C(C(F)(F)F)C(F)(F)F)cc1C [5-68]
[1]
  Test Example 1 (insecticidal effect, mortality criterion): A (Mortality 100%)
[2]
  Test Example 2 (insecticidal effect, mortality criterion): E (Mortality 49% or less)
[3]
  Test Example 3 (insecticidal effect, mortality criterion): E (Mortality 49% or less)

## CSCC(C)(C)NC(=O)c1c(I)cccc1C(=O)Nc1ccc(C(C(F)(F)F)C(F)(F)F)c(OC(C)C)c1 [5-70]
[1]
  Test Example 1 (insecticidal effect, mortality criterion): A (Mortality 100%)
[2]
  Test Example 2 (insecticidal effect, mortality criterion): E (Mortality 49% or less)
[3]
  Test Example 3 (insecticidal effect, mortality criterion): E (Mortality 49% or less)

## CSCC(C)(C)NC(=O)c1c(I)cccc1C(=O)Nc1ccc(C(C(F)(F)F)C(F)(F)C(F)(F)F)cc1C (stereo not drawn) [5-71]
[1]
  Test Example 1 (insecticidal effect, mortality criterion): A (Mortality 100%)
[2]
  Test Example 2 (insecticidal effect, mortality criterion): A (Mortality 100%)
[3]
  Test Example 3 (insecticidal effect, mortality criterion): A (Mortality 100%)

## CCN(CC)C(=O)c1c(I)cccc1C(=O)Nc1ccc(C(C(F)(F)F)C(F)(F)F)cc1C [6-1]
[1]
  Test Example 1 (insecticidal effect, mortality criterion): A (Mortality 100%)
[2]
  Test Example 2 (insecticidal effect, mortality criterion): A (Mortality 100%)
[3]
  Test Example 3 (insecticidal effect, mortality criterion): A (Mortality 100%)

## Cc1cc(C(C(F)(F)F)C(F)(F)F)ccc1N(C)C(=O)c1cccc(I)c1C(=O)NC(C)C [6-2]
[1]
  Test Example 1 (insecticidal effect, mortality criterion): A (Mortality 100%)
[2]
  Test Example 2 (insecticidal effect, mortality criterion): E (Mortality 49% or less)
[3]
  Test Example 3 (insecticidal effect, mortality criterion): A (Mortality 100%)

## CSCC(C)(C)NC(=O)c1c(I)cccc1C(=O)N(C)c1ccc(C(C(F)(F)F)C(F)(F)F)cc1C [6-3]
[1]
  Test Example 1 (insecticidal effect, mortality criterion): A (Mortality 100%)
[2]
  Test Example 2 (insecticidal effect, mortality criterion): A (Mortality 100%)
[3]
  Test Example 3 (insecticidal effect, mortality criterion): A (Mortality 100%)

## Cc1cc(C(C(F)(F)F)C(F)(F)F)ccc1NC(=O)c1ncccc1C(=O)NC(C)C [7-1]
[1]
  Test Example 1 (insecticidal effect, mortality criterion): A (Mortality 100%)
[2]
  Test Example 2 (insecticidal effect, mortality criterion): E (Mortality 49% or less)
[3]
  Test Example 3 (insecticidal effect, mortality criterion): A (Mortality 100%)

## CSCC(C)(C)NC(=O)c1c(I)cccc1C(=O)Nc1ccc(C(C(F)(F)F)C(F)(F)F)nc1 [8-1]
[1]
  Test Example 1 (insecticidal effect, mortality criterion): A (Mortality 100%)
[2]
  Test Example 2 (insecticidal effect, mortality criterion): C (Mortality 89-80%)
[3]
  Test Example 3 (insecticidal effect, mortality criterion): E (Mortality 49% or less)

## C[S+]([O-])CC(C)(C)NC(=O)c1c(I)cccc1C(=O)Nc1ccc(C(C(F)(F)F)C(F)(F)F)nc1 (stereo not drawn) [8-2]
[1]
  Test Example 1 (insecticidal effect, mortality criterion): A (Mortality 100%)
[2]
  Test Example 2 (insecticidal effect, mortality criterion): E (Mortality 49% or less)
[3]
  Test Example 3 (insecticidal effect, mortality criterion): E (Mortality 49% or less)

## CC(C)(CS(C)(=O)=O)NC(=O)c1c(I)cccc1C(=O)Nc1ccc(C(C(F)(F)F)C(F)(F)F)nc1 [8-3]
[1]
  Test Example 1 (insecticidal effect, mortality criterion): A (Mortality 100%)
[2]
  Test Example 2 (insecticidal effect, mortality criterion): E (Mortality 49% or less)
[3]
  Test Example 3 (insecticidal effect, mortality criterion): A (Mortality 100%)

## C[S+]([O-])CC(C)(C)NC(=O)c1c(I)cccc1C(=O)Nc1ccc(C(C(F)(F)F)C(F)(F)F)nc1Cl (stereo not drawn) [8-5]
[1]
  Test Example 1 (insecticidal effect, mortality criterion): A (Mortality 100%)
[2]
  Test Example 2 (insecticidal effect, mortality criterion): A (Mortality 100%)
[3]
  Test Example 3 (insecticidal effect, mortality criterion): A (Mortality 100%)

## CC(C)(CS(C)(=O)=O)NC(=O)c1c(I)cccc1C(=O)Nc1ccc(C(C(F)(F)F)C(F)(F)F)nc1Cl [8-6]
[1]
  Test Example 1 (insecticidal effect, mortality criterion): A (Mortality 100%)
[2]
  Test Example 2 (insecticidal effect, mortality criterion): D (Mortality 79-50%)
[3]
  Test Example 3 (insecticidal effect, mortality criterion): A (Mortality 100%)

## CSCC(C)(C)NC(=O)c1c(C(=O)Nc2ccc(C(C(F)(F)F)C(F)(F)F)nc2C)cccc1[N+](=O)[O-] [8-7]
[1]
  Test Example 1 (insecticidal effect, mortality criterion): A (Mortality 100%)
[2]
  Test Example 2 (insecticidal effect, mortality criterion): C (Mortality 89-80%)
[3]
  Test Example 3 (insecticidal effect, mortality criterion): E (Mortality 49% or less)

## Cc1nc(C(C(F)(F)F)C(F)(F)F)ccc1NC(=O)c1cccc([N+](=O)[O-])c1C(=O)NC(C)(C)C[S+](C)[O-] (stereo not drawn) [8-8]
[1]
  Test Example 1 (insecticidal effect, mortality criterion): A (Mortality 100%)
[2]
  Test Example 2 (insecticidal effect, mortality criterion): E (Mortality 49% or less)
[3]
  Test Example 3 (insecticidal effect, mortality criterion): E (Mortality 49% or less)

## Cc1nc(C(C(F)(F)F)C(F)(F)F)ccc1NC(=O)c1cccc([N+](=O)[O-])c1C(=O)NC(C)(C)CS(C)(=O)=O [8-9]
[1]
  Test Example 1 (insecticidal effect, mortality criterion): A (Mortality 100%)
[2]
  Test Example 2 (insecticidal effect, mortality criterion): D (Mortality 79-50%)
[3]
  Test Example 3 (insecticidal effect, mortality criterion): E (Mortality 49% or less)

## Cc1nc(C(C(F)(F)F)C(F)(F)F)ccc1NC(=O)c1cccc(I)c1C(=O)NC(C)C [8-10]
[1]
  Test Example 1 (insecticidal effect, mortality criterion): A (Mortality 100%)
[2]
  Test Example 2 (insecticidal effect, mortality criterion): A (Mortality 100%)
[3]
  Test Example 3 (insecticidal effect, mortality criterion): A (Mortality 100%)

## CSCC(C)(C)NC(=O)c1c(I)cccc1C(=O)Nc1ccc(C(C(F)(F)F)C(F)(F)F)nc1C [8-11]
[1]
  Test Example 1 (insecticidal effect, mortality criterion): A (Mortality 100%)
[2]
  Test Example 2 (insecticidal effect, mortality criterion): A (Mortality 100%)
[3]
  Test Example 3 (insecticidal effect, mortality criterion): A (Mortality 100%)

## Cc1nc(C(C(F)(F)F)C(F)(F)F)ccc1NC(=O)c1cccc(I)c1C(=O)NC(C)(C)C[S+](C)[O-] (stereo not drawn) [8-12]
[1]
  Test Example 1 (insecticidal effect, mortality criterion): A (Mortality 100%)
[2]
  Test Example 2 (insecticidal effect, mortality criterion): A (Mortality 100%)
[3]
  Test Example 3 (insecticidal effect, mortality criterion): A (Mortality 100%)

## Cc1nc(C(C(F)(F)F)C(F)(F)F)ccc1NC(=O)c1cccc(I)c1C(=O)NC(C)(C)CS(C)(=O)=O [8-13]
[1]
  Test Example 1 (insecticidal effect, mortality criterion): A (Mortality 100%)
[2]
  Test Example 2 (insecticidal effect, mortality criterion): A (Mortality 100%)
[3]
  Test Example 3 (insecticidal effect, mortality criterion): A (Mortality 100%)

## CSCC(C)NC(=O)c1c(I)cccc1C(=O)Nc1ccc(C(C(F)(F)F)C(F)(F)F)nc1C (stereo not drawn) [8-14]
[1]
  Test Example 1 (insecticidal effect, mortality criterion): A (Mortality 100%)
[2]
  Test Example 2 (insecticidal effect, mortality criterion): A (Mortality 100%)
[3]
  Test Example 3 (insecticidal effect, mortality criterion): A (Mortality 100%)

## CCNC(=O)OCC(C)NC(=O)c1c(I)cccc1C(=O)Nc1ccc(C(C(F)(F)F)C(F)(F)F)nc1C (stereo not drawn) [8-26]
[1]
  Test Example 1 (insecticidal effect, mortality criterion): A (Mortality 100%)
[2]
  Test Example 2 (insecticidal effect, mortality criterion): D (Mortality 79-50%)
[3]
  Test Example 3 (insecticidal effect, mortality criterion): A (Mortality 100%)

## Cc1nc(C(C(F)(F)F)C(F)(F)F)ccc1NC(=O)c1cccc(I)c1C(=O)NC(C)COC(=O)NCc1ccccc1 (stereo not drawn) [8-27]
[1]
  Test Example 1 (insecticidal effect, mortality criterion): A (Mortality 100%)
[2]
  Test Example 2 (insecticidal effect, mortality criterion): E (Mortality 49% or less)
[3]
  Test Example 3 (insecticidal effect, mortality criterion): E (Mortality 49% or less)

## CSCC1(C)COC(c2c(I)cccc2C(=O)Nc2ccc(C(C(F)(F)F)C(F)(F)F)cc2C)=N1 (stereo not drawn) [10-2]
[1]
  Test Example 1 (insecticidal effect, mortality criterion): A (Mortality 100%)
[2]
  Test Example 2 (insecticidal effect, mortality criterion): E (Mortality 49% or less)
[3]
  Test Example 3 (insecticidal effect, mortality criterion): E (Mortality 49% or less)

## Cc1cc(C(C(F)(F)F)C(F)(F)F)ccc1NC(=O)c1cccc(I)c1C1=NC(C)(C[S+](C)[O-])CO1 (stereo not drawn) [10-3]
[1]
  Test Example 1 (insecticidal effect, mortality criterion): A (Mortality 100%)
[2]
  Test Example 2 (insecticidal effect, mortality criterion): E (Mortality 49% or less)
[3]
  Test Example 3 (insecticidal effect, mortality criterion): E (Mortality 49% or less)
